Experimental findings from patent publication US20230141887A1, “CRYSTAL FORM OF DIAZASPIROPYRAN COMPOUND” (MEDSHINE DISCOVERY INC., priority 2020, published 2023) are described below.

For assay [1], the target named is T1, FLT3(ITD) (Homo sapiens, UniProt P36888).
T1 construct: fused on or other part: DNA tag for the qPCR read-out (the KINOMEscan format)
T1 sequence (P36888 1-993): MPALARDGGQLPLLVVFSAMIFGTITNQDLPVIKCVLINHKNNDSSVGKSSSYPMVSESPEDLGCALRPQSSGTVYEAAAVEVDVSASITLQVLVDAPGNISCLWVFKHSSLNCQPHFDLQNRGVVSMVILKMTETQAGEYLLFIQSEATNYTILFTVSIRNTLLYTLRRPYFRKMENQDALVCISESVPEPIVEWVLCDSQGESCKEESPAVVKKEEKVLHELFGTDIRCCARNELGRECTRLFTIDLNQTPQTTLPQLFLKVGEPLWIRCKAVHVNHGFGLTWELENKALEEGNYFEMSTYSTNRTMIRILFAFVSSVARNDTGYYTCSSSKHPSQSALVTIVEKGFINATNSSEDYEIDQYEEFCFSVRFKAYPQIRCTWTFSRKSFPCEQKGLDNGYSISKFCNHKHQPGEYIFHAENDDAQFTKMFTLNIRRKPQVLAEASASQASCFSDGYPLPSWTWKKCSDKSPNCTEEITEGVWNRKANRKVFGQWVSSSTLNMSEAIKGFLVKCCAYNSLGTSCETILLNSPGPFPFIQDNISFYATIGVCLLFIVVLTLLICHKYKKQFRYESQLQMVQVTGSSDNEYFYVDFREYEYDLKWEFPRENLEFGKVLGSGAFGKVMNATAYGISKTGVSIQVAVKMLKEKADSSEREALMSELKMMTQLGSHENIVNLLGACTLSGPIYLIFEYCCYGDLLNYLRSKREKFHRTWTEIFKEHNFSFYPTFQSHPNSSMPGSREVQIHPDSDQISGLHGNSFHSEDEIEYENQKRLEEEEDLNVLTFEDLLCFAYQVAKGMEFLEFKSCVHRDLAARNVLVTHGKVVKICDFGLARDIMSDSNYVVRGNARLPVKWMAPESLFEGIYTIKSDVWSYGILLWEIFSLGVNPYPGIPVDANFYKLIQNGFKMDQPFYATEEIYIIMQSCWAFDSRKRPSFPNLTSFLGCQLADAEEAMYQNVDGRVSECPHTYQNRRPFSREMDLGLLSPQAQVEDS
The format is binding.

The target in assay [2] is T2, FLT3 (Homo sapiens, UniProt P36888).
T2 construct: purchased Promega
Nature of the assay: Assay of FLT3 inhibitory activity in vitro (Promega FLT3 Kinase Enzyme System, ADP-Glo). It is filed as biochemical. Particulars: 50 μmol/L ATP, 30° C., 120 minutes. Here is the method:
(§1) The assay was carried out in duplicate. […] After the reaction was completed, 5 μL of ADP-Glo reagent was added to each well. The system was further reacted at 30° C. for 40 minutes. After the reaction was completed, 10 μL of kinase detection reagent was added to each well and reacted at 30° C. for 30 minutes. The chemiluminescence was then read by the PerkinElmer Envision multi-label analyzer with an integration time of 0.5 seconds.
(§2) The original data was converted into an inhibition rate, and the IC50 value can be obtained by four-parameter curve fitting.
(In general: ADP-Glo first removes unused ATP, then detects ADP through luciferase.)

Assay [3] concerns the target T3, AXL (Homo sapiens, UniProt P30530).
T3 construct: purchased Promega
T3 sequence (P30530 26-894): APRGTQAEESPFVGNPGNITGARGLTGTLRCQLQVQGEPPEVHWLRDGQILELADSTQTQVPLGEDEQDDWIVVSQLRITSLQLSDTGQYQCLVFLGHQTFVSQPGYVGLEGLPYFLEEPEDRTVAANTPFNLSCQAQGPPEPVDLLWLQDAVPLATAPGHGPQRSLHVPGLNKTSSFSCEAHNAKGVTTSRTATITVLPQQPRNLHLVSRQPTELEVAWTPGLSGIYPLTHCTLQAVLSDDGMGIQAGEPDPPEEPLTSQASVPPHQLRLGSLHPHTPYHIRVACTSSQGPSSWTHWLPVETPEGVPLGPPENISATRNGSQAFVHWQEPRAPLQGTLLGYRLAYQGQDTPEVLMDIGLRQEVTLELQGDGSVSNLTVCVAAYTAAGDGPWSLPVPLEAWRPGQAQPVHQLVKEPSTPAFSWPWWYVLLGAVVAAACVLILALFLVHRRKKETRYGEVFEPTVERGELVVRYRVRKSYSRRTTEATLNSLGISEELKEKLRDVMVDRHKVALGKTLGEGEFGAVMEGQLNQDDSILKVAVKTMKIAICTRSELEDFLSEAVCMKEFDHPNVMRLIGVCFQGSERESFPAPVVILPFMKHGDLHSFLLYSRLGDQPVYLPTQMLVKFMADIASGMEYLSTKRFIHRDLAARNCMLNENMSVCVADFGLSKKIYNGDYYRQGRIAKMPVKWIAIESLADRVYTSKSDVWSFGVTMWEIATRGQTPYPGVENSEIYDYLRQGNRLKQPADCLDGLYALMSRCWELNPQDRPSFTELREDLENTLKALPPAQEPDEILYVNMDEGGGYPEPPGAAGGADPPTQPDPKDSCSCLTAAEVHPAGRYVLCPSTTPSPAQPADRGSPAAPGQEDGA
Nature of the assay: Assay of AXL inhibitory activity in vitro (Promega AXL Kinase Enzyme System, ADP-Glo). Particulars: 50 μmol/L ATP, 30° C., 60 minutes. It is filed as biochemical. Here is the method: AXL Kinase Enzyme System (kinase system) was purchased from Promega. Envision multi-label Analyzer (PerkinElmer).
The enzyme, substrate, ATP and inhibitors were diluted using the buffer solution in the kit.
as §1, with “duplicate. 1 μl of the inhibitors of each concentration gradient, 2 μl of the AXL enzyme (6 ng), and a 2 μl mixture of the substrate and ATP (50 μmol/L ATP, 0.2 μg/μL Axltide) were added to the microplate.” for “duplicate.”
as §2

What is called Kd is a measure of binding affinity in units of concentration. Usually IC50 stands for the concentration at which inhibition is half-maximal. A lower IC50 goes with greater potency in that assay. In turn, `CCc1nc(C(N)=O)c(Nc2ccc(N3CCC4(CCN(C)CC4)CC3)c(C)c2)nc1NC1CCOCC1.O=C(O)C(F)(F)F` came in with a Kd in assay [1] of 3.6 nM. Further, the values for the IC50 in assay [2] and in assay [3] were 0.42 nM and 1.22 nM, respectively.
